# Source: US20220356472A1, “METHODS AND COMPOSITIONS FOR TYPE 2 DIABETES THERAPY” (Sanford Burnham Prebys Medical Discovery Institute, priority 2019, published 2022)
# How the values were obtained:
# Format in all cases: cell-based, mouse
# [1] = system: islets isolated from WT C57BL/6 mice; assay: Gene expression in isolated islets treated with compounds
# Experimental: For this purpose, the effect of a membrane-permeable intracellular Ca^2+-chelator, BAPTA-AM was tested on islets isolated from WT C57BL/6 mice. An overnight incubation with BAPTA-AM (10 μM) reduced both Ins1 and Ins2 mRNA levels (FIG. 6A, “Insulin” panel, Ctrl versus BAPTA-AM). […] On the other hand, tunicamycin (Tm, 0.5 μg/mL) in combination with BAPTA-AM rescued both Ins1 and Ins2 mRNA levels. Concomitantly, Chop and sXBP1 mRNAs, as well as MP mRNA were induced by Tm treatment (FIG. 6A, BAPTA-AM columns versus BAPTA/Tm columns).
# [2] = system: islets isolated from WT C57BL/6 mice; assay: as above; settings: HFn 50 nM, vs Ctrl
# WT and Chop βKO islets = assay: Ins1/Ins2 transcription in independent batch of islets treated with tunicamycin; settings: tunicamycin 5 μg/mL
# [3] = BAPTA-AM 10 μM, overnight incubation, vs Ctrl
# [4] = Tm 0.5 μg/mL in combination with BAPTA-AM, vs BAPTA-AM
compound,measurement,setting,value
CC(=O)OCOC(=O)CN(CC(=O)OCOC(C)=O)c1ccccc1OCCOc1ccccc1N(CC(=O)OCOC(C)=O)CC(=O)OCOC(C)=O [BAPTA-AM],Chop level,[1]; [3],reduced
same,Ins1 mRNA level,[1]; [3],reduced
same,Ins2 mRNA level,[1]; [3],reduced
same,sXBP1 level,[1]; [3],reduced
O=C(CC1NCCCC1O)Cn1cnc2cc(Br)c(Cl)cc2c1=O (centres unmarked) [halofuginone],ATF4 induction,[2],pronounced ATF4 and Chop induction
same,Chop induction,[2],pronounced ATF4 and Chop induction
same,Ins1 mRNA,[2],reduced
same,Ins2 mRNA,[2],reduced
tunicamycin,Chop mRNA,[1]; [4],induced
same,Ins1 mRNA level,[1]; [4],rescued
same,Ins2 mRNA level,[1]; [4],rescued
same,MP mRNA,[1]; [4],induced
same,sXBP1 mRNA,[1]; [4],induced
same,Ins1/Ins2 transcription,WT and Chop βKO islets,positive regulation
